One data set concerns the target T1, adrenergic α1A receptor (Homo sapiens, UniProt P35348).
T1 sequence (P35348 1-466): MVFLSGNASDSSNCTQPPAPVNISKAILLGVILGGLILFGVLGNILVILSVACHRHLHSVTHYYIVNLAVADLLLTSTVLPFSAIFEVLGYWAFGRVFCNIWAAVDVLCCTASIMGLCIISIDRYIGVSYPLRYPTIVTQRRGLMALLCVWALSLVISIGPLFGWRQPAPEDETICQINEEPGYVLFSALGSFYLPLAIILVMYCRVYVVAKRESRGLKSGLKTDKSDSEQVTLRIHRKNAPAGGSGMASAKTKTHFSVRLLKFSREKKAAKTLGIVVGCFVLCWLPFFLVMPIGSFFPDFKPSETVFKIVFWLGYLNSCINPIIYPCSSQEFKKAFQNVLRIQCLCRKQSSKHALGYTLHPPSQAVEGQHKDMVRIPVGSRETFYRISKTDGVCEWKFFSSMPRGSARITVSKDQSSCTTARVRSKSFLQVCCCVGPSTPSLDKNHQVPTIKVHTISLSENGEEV
The data set can be described thus: Radioligand binding, adrenergic α1A.

For a further data set, the target named is T2, adrenergic α1B receptor (Homo sapiens, UniProt P35368).
T2 sequence (P35368 1-520): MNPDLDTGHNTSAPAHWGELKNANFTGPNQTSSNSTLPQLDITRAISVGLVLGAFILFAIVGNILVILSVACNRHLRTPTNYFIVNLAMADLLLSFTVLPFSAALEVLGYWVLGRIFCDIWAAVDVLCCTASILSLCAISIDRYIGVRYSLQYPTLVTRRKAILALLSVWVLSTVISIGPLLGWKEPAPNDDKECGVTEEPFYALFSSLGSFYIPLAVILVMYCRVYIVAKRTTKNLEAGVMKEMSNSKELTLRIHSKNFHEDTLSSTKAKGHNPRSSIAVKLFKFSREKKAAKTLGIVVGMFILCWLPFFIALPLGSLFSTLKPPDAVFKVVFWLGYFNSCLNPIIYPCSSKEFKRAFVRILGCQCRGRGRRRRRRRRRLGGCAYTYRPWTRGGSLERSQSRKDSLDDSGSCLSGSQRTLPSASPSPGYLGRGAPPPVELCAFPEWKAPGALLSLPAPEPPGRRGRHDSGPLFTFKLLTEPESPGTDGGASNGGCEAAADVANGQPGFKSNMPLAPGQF
The data set can be described thus: Radioligand binding, adrenergic α1B.

For another data set, the target named is T3, adrenergic α1D receptor (Homo sapiens, UniProt P25100).
T3 sequence (P25100 1-572): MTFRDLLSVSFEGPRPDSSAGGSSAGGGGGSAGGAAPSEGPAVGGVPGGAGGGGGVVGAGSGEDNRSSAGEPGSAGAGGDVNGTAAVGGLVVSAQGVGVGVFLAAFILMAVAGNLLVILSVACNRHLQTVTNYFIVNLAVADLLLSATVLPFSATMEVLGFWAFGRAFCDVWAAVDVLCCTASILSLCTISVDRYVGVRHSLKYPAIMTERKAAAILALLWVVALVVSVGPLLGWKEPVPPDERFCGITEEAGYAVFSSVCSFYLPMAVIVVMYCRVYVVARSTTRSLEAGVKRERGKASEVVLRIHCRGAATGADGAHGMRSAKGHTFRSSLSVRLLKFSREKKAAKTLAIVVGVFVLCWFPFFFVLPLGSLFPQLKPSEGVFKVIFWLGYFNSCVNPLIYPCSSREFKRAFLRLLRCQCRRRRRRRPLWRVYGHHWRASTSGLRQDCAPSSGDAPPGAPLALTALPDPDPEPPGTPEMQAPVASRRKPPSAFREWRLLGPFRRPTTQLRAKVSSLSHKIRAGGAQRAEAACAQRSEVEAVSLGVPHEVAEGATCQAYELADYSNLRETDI
The data set can be described thus: Radioligand binding, adrenergic α1D.

A further data set concerns the target T4, adrenergic α2A receptor (Homo sapiens, UniProt P08913).
T4 sequence (P08913 1-465): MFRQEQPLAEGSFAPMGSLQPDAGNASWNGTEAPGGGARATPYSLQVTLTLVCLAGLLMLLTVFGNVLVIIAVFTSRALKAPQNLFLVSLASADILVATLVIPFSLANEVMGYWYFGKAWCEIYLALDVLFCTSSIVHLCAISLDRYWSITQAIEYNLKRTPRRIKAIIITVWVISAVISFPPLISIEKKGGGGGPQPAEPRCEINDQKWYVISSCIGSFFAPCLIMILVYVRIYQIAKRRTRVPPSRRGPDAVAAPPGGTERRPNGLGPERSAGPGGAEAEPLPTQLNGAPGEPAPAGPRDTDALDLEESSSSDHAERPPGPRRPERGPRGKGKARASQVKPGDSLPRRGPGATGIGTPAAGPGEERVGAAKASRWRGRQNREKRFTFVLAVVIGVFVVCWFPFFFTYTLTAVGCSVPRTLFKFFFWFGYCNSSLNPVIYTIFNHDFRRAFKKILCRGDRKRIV
The data set can be described thus: Radioligand binding, adrenergic α2A.

Another data set has as its target T5, adrenergic α2B receptor (Homo sapiens, UniProt P18089).
T5 sequence (P18089 1-450): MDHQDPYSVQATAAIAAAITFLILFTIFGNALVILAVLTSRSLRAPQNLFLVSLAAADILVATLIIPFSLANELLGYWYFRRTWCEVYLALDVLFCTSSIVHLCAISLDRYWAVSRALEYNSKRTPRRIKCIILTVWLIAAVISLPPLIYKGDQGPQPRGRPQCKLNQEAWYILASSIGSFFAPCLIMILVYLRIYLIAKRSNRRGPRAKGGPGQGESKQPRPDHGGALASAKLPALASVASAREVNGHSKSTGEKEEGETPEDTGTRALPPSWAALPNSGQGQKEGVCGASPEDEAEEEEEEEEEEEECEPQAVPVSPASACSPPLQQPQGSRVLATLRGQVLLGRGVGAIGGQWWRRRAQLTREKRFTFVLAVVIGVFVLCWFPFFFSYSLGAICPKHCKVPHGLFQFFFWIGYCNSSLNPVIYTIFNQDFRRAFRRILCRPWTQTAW
The class given is binding.

The target of data set [1] is delta opioid receptor (DOP) (Homo sapiens, UniProt P41143). The data set can be described thus: Radioligand binding, delta opioid receptor.
For a further data set, the target named is mu opioid receptor (MOP) (Homo sapiens, UniProt P35372). The class given is binding.
Another data set concerns the target nociceptin NOP (ORL1) (Homo sapiens, UniProt P41146). The data set can be described thus: Radioligand binding, nociceptin receptor.
The next data set concerns the target MOP (Homo sapiens, UniProt P35372). The class given is cell-based.
Another data set has as its target T6, α1A adrenergic receptor (Homo sapiens, UniProt P35348).
T6 sequence (P35348 1-466): T1 sequence (P35348 1-466)
Type of data set: cell-based.

The target in another data set is T7, α1B adrenergic receptor (Homo sapiens, UniProt P35368).
T7 sequence (P35368 1-520): T2 sequence (P35368 1-520)
Type of data set: cell-based.

Another data set has as its target T8, α1D adrenergic receptor (Homo sapiens, UniProt P25100).
T8 sequence (P25100 1-572): T3 sequence (P25100 1-572)
Type of data set: cell-based.

A further data set deals with T9, α2C adrenergic receptor (Homo sapiens, UniProt P18825).
T9 sequence (P18825 1-462): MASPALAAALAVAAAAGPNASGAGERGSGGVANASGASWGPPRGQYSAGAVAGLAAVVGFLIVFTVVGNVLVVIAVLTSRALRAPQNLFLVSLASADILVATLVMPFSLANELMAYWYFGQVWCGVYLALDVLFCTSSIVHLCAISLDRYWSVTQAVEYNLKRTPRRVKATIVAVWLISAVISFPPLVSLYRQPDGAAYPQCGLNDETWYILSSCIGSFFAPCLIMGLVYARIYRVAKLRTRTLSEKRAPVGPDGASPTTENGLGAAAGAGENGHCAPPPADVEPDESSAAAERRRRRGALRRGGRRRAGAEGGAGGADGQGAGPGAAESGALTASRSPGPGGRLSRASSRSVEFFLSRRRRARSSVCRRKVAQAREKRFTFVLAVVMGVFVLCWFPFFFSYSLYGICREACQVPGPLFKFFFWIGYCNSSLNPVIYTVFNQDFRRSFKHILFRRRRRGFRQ
Type of data set: cell-based.

Another data set deals with KOP (Homo sapiens, UniProt P41145). The data set can be described thus: cell-based. The class given is cell-based.
Data set [2] relates to Sprague-Dawley rats. The following applies: rat, in vivo, iv, 10 mg/kg.
Data set [3] has as its system Sprague-Dawley rats. To be noted: rat, in vivo, iv.
The next data set relates to rats. The following applies: Sprague-Dawley, rat, in vivo.
Data set [4] has as its system human opioid receptors (MOP). The following applies: BRET assay; in words ref 14; cited from earlier work. Background: BRET reads energy transfer from a luciferase to a nearby fluorophore.
In a further data set the test system is guinea pig ileum. To be noted: in words ref 15; cited from earlier work.

We go through four compounds from PMC7676998 (Journal of medicinal chemistry, 2019).

Like-named read-outs stand apart in the source and are kept apart here.

Sequence of delta opioid receptor (DOP) (P41143 whole entry): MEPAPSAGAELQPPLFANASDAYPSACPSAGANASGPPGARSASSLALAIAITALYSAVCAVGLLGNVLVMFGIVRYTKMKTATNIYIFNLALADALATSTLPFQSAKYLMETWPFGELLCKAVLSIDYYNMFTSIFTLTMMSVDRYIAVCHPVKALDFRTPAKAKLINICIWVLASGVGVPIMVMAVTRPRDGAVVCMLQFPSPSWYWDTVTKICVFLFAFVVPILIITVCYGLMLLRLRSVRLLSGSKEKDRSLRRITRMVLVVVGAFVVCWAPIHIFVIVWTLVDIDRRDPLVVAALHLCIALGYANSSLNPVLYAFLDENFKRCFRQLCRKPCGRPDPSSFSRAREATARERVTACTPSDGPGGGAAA
Sequence of mu opioid receptor (MOP) (P35372 whole entry): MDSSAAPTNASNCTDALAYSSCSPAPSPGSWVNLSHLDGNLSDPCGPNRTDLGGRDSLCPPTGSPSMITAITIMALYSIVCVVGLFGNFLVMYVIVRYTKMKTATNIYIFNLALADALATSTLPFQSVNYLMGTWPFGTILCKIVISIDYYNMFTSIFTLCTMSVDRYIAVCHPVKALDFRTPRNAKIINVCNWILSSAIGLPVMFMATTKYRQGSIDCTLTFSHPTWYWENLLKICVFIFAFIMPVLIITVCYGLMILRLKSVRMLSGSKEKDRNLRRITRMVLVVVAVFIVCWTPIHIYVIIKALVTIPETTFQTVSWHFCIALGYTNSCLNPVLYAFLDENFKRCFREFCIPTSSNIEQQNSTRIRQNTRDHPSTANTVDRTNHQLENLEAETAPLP
Sequence of nociceptin NOP (ORL1) (P41146 whole entry): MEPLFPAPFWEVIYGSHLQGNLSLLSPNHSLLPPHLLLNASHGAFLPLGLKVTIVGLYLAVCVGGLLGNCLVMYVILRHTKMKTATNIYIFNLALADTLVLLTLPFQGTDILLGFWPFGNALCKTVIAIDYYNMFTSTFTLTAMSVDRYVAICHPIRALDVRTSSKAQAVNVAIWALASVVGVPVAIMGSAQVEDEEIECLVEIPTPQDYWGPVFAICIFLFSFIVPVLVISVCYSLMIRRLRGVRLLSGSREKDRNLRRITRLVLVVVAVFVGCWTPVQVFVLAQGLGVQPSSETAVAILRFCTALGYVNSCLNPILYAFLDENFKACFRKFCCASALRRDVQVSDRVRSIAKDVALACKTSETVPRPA
Sequence of MOP (P35372 whole entry): as the sequence (P35372 whole entry) above
Sequence of KOP (P41145 whole entry): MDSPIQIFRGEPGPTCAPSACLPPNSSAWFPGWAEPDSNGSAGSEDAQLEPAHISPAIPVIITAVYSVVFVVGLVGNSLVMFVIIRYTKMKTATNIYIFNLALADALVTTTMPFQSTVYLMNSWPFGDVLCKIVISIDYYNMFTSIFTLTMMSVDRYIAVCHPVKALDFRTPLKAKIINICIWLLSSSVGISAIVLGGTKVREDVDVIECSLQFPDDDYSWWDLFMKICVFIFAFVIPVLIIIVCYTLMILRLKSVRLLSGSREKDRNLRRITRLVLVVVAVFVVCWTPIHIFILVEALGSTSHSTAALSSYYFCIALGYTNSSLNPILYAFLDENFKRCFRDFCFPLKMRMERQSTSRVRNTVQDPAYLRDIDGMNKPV

Consider `CC[C@@H]1CN2CCc3c([nH]c4cccc(O)c34)[C@@H]2C[C@@H]1/C(=C\OC)C(=O)OC` [9-hydroxycorynantheidine], for which the “percent displacement of bound radioligand, adrenergic α1A” value on adrenergic α1A receptor (100 nM test compound) is given as 16.4%; at adrenergic α1A receptor (10,000 nM test compound), 62.3%. For the same compound, the “percent displacement of bound radioligand, adrenergic α1B” value on adrenergic α1B receptor (100 nM test compound) is reported as −4.4%; at adrenergic α1B receptor (10,000 nM test compound) it was 29.0%. Also, the results for the “percent displacement of bound radioligand, adrenergic α1D” value at adrenergic α1D receptor (100 nM test compound) and at adrenergic α1D receptor (10,000 nM test compound) were 12.4% and 66.3%, respectively. For the same compound, the “percent displacement of bound radioligand, adrenergic a2A” value is reported as −10.2% on adrenergic α2A receptor (100 nM test compound) and 20.0% at adrenergic α2A receptor (10,000 nM test compound). For the same compound, the “percent displacement of bound radioligand, adrenergic α2B” value was −5.7% on adrenergic α2B receptor (100 nM test compound) and 14.6% at adrenergic α2B receptor (10,000 nM test compound). Moreover, in data set [1] (10,000 nM test compound), the “percent displacement of bound radioligand, opioid δ” value amounted to 25.3%. Besides, the “percent displacement of bound radioligand, opioid μ” value is on record as 29.3% on mu opioid receptor (MOP) (100 nM test compound) and 95.4% at mu opioid receptor (MOP) (10,000 nM test compound). Also, the “percent displacement of bound radioligand, nociceptin NOP (ORL1)” value is listed as −2.9% at nociceptin NOP (ORL1) (100 nM test compound) and 28.9% on nociceptin NOP (ORL1) (10,000 nM test compound).
On to `CC[C@@H]1CN2CCc3c([nH]c4ccccc34)[C@@H]2C[C@@H]1/C(=C\OC)C(=O)OC` [corynantheidine], for which the “percent displacement of bound radioligand, adrenergic α1A” value on adrenergic α1A receptor (100 nM test compound) was 45.9%; at adrenergic α1A receptor (10,000 nM test compound) it was 100.5%. For the same compound, the “percent displacement of bound radioligand, adrenergic α1B” value stood at 19.6% at adrenergic α1B receptor (100 nM test compound) and 91.0% on adrenergic α1B receptor (10,000 nM test compound). Further, the entries for the “percent displacement of bound radioligand, adrenergic α1D” value on adrenergic α1D receptor (100 nM test compound) and on adrenergic α1D receptor (10,000 nM test compound) were 73.5% and 101.2%, respectively. Besides, on adrenergic α1D receptor (ratio of Ki versus mitragynine), the “fold higher affinity at the α−1D receptor than mitragynine” value worked out at 131 fold. Moreover, the “percent displacement of bound radioligand, adrenergic a2A” value came to 27.2% on adrenergic α2A receptor (100 nM test compound) and 95.1% at adrenergic α2A receptor (10,000 nM test compound). The “percent displacement of bound radioligand, adrenergic α2B” value amounted to 8.5% on adrenergic α2B receptor (100 nM test compound) and 79.9% at adrenergic α2B receptor (10,000 nM test compound). For the same compound, the “percent displacement of bound radioligand, opioid δ” value in data set [1] (100 nM test compound) is 8.6%; in [1] (10,000 nM test compound), 31.4%. The “percent displacement of bound radioligand, opioid μ” value came to 39.6% on mu opioid receptor (MOP) (100 nM test compound) and 96.8% at mu opioid receptor (MOP) (10,000 nM test compound). Moreover, the “percent displacement of bound radioligand, nociceptin NOP (ORL1)” value on nociceptin NOP (ORL1) (100 nM test compound) is reported as −1.3%; on nociceptin NOP (ORL1) (10,000 nM test compound), 27.0%.
As for `CC[C@@H]1CN2CCc3c([nH]c4cccc(OC)c34)[C@@H]2C[C@@H]1/C(=C\OC)C(=O)OC` [mitragynine], at adrenergic α1B receptor (100 nM test compound), the “percent displacement of bound radioligand, adrenergic α1B” value is listed as −12.5%. Also, the “functional effect at MOP” value on MOP is on record as “partial agonists”. Further, on α1A adrenergic receptor, the “agonist effect at α1A” value was “partial agonist” and the “antagonist effect at α−1A” value is “competitive antagonist effects”. Besides, the “antagonist effect at α−1B” value at α1B adrenergic receptor was “competitive antagonist effects”. Further, at α1D adrenergic receptor, the “agonist effect at α1D” value was “partial agonist” and the “antagonist effect at α−1D” value is “competitive antagonist effects”. Moreover, the “antagonist effect at α−2C” value on α2C adrenergic receptor was “competitive antagonist effects”.
On to `CC[C@@H]1CN2CCc3c([nH]c4cccc(OC)c34)[C@H]2C[C@@H]1/C(=C\OC)C(=O)OC` [speciociliatine], for which the “percent displacement of bound radioligand, nociceptin NOP (ORL1)” value at nociceptin NOP (ORL1) (100 nM test compound) was −14.9%. Also, at MOP, the “functional effect at MOP” value is on record as “partial agonists”. Moreover, the “functional effect at KOP” value at KOP is reported as “no agonist or antagonist effects”. Further, the “antinociceptive effects in hot plate test” value with Sprague-Dawley rats [2] is reported as “had antinociceptive effects”. Moreover, in the data set on Sprague-Dawley rats [3], the “change in body temperature (hypothermia)” value is “produced hypothermia”. Besides, in the data set with rats, the “lethality (rats dead / rats tested)” value was 5/21. For the same compound, the “agonist / antagonist activity at human opioid receptors” value in data set [4] was “no measurable agonist activity”. In the data set on guinea pig ileum, the “inhibition of electrically induced twitch contraction” value is “maximum inhibition of electrically induced twitch contraction of guinea pig ileum similar to morphine”.
